Laboratory results taken from patent publication US8637562B2, “Methods for detecting sulfhydryl-containing compounds in a biological test sample” (Theravance, Inc., priority 2008, dated 2014).

How the values were obtained:
Format in all cases: in vitro ADME
[1] = Hydrolysis of the methyl acrylate derivative in dog plasma (monomer detection method, LC-MS/MS)
Method: (§1) Subsequent studies were conducted using dog and monkey plasma. Accordingly, similar calibration standards were prepared in dog and monkey plasma.
(§2) Plasma samples were extracted by protein precipitation. In general, 200 μL of MeCN containing a specified concentration of the internal standard was added into a 50 μL aliquot of each plasma calibration standard, QC, and in vivo plasma sample. The plasma samples were then vortexed and centrifuged. 100 μL of extract was then taken from each plasma sample and reconstituted into 200 μL of 5% MeCN/water containing 0.2% formic acid.
(§3) Multiple reaction monitoring (MRM) is the standard technique for quantitative LC-MS/MS experiments. Four specific MRM transitions for compound I-a, compound III-a, compound IV-a, and the internal standard were simultaneously monitored by LC-MS/MS. 4′-(5-{[(S)-2-(2-Carboxyethylsulfanyl)-4-methylpentanoyl amino]methyl}-2-ethoxy-4-ethylimidazol-1-ylmethyl)-3′-fluorobiphenyl-2-carboxylic acid (compound IV-a):
(§4) [drawing 27] is the hydrolyzed form of compound III-a. […] The relevant derivative concentrations of in vivo samples were determined from the calibration curve. The monomer concentration (in ng/mL units) was calculated from the concentration of the relevant derivative multiplied by the correction factor of the ratio of the molecular weight of the monomer/molecular weight of the derivative.

[2] = Hydrolysis of the methyl acrylate derivative in rat plasma (monomer detection method, LC-MS/MS); settings: rat plasma containing 1% (v/v) methyl acrylate
Method: Rat blood (0.3 mL) was placed into EDTA microtainer tubes containing methyl acrylate (3 μL) (1:100 volume ratio of methyl acrylate:blood). Blood and methyl acrylate were mixed by gentle rolling and tapping of the tube. After 30 minutes of reaction at room temperature, the blood samples were placed on ice until centrifugation. The blood was processed to obtain plasma by centrifugation for 4 minutes at approximately 12,000 rpm. 0.15 mL of plasma was then transferred to cluster tubes on dry ice.
[drawing 26] into a specified volume of blank rat plasma containing 1% (v/v) of methyl acrylate. Compound III-a is the methyl acrylate derivative of compound I-a. In general, the calibration curve range was 0.1 to 1000 ng/mL of compound III-a in rat plasma. […]
Multiple reaction monitoring (MRM) is the standard technique for quantitative LC-MS/MS experiments. Four specific MRM transitions for compound I-a, compound III-a, compound IV-a, and the internal standard were simultaneously monitored by LC-MS/MS. […]
as §4

[3] = Hydrolysis of the methyl acrylate derivative in monkey plasma (monomer detection method, LC-MS/MS)
Method: as §1, §2, §3, §4

In the case of `CCOc1nc(CC)c(CNC(=O)[C@H](CC(C)C)SCCC(=O)OC)n1Cc1ccc(-c2ccccc2C(=O)O)cc1F` [Compound III-a, 4′-(2-ethoxy-4-ethyl-5-{[(S)-2-(2-methoxycarbonylethylsulfanyl)-4-methylpentanoylamino]methyl}imidazol-1-ylmethyl)-3′-fluorobiphenyl-2-carboxylic acid], the “hydrolysis of compound III-a to compound IV-a in plasma” value (shortened to “hydrolysis”) [1] is reported as “not”, the “hydrolysis” value [2] is reported as “completely hydrolyzes to compound IV-a” and the “hydrolysis” value [3] is reported as “not”.
